pKd: −log10 of the molar value. *1 amine or outer side, *2 acyl side, *3 side chain or, on linkers, in order; H or OH if unused. Where a SMILES comes first, the peptide text is derived from it. Bridges are numbered along the chain shown (N, C = ends). mXylylene = c1cc(C[*:1])cc(C[*:2])c1
How the values were obtained:
LDHBtr [1] = target: T1, LDHBtr (Homo sapiens, UniProt P07195); assay: NMR WaterLOGSY binding screening
Method: All experiments were acquired on a Bruker Ascend Avance III 600 MHz equipped with a broadband cryoprobe (Bruker® GmBH, Germany)
(§1) NMR WaterLOGSY was performed on samples prepared in 10% D2O buffer containing 50 mM sodium phosphate buffer, pH 7.6 and 100 mM NaCl. The concentration of LDH subunits was 15-20 μM. Ligand binding was detected using a NMR WaterLOGSY ephogsygpno.2 advance-version sequence with a […]. Water signal suppression was achieved using excitation sculpting scheme and a 50 ms spinlock was used to suppress protein background signal. For each experiment, 512 scans were collected to yield a 16K points FID. NMR WaterLOGSY intensity was corrected by plotting the intensity difference of the ligand NMR WaterLOGSY spectra recorded in the presence and absence of protein.
For NMR WaterLOGSY screening experiments a correction factor was applied to account for slight concentration variation between samples. To do so, 8 scans 1H NMR spectra with 50 ms spinlock were recorded before NMR WaterLOGSY experiments. The intensity ratio of the aliphatic region (0.700 ppm to 0.955 ppm) with and without protein was used as a correction factor to compare the NMR WaterLOGSY intensity of the polypeptides of interest with and without LDH subunits. An arbitrary threshold of 0.1, corresponding to a 10% decrease in the NMR WaterLOGSY signal intensity between the spectra with and without protein, was set to discriminate between binders and non-binders.

full length LDH1 enzyme = full length LDH1 enzyme (Homo sapiens, UniProt P07195); assay: Biochemical/biophysical evaluation of interaction with full length tetrameric LDHB; assay type: binding
Sequence of full length LDH1 enzyme (P07195 whole entry): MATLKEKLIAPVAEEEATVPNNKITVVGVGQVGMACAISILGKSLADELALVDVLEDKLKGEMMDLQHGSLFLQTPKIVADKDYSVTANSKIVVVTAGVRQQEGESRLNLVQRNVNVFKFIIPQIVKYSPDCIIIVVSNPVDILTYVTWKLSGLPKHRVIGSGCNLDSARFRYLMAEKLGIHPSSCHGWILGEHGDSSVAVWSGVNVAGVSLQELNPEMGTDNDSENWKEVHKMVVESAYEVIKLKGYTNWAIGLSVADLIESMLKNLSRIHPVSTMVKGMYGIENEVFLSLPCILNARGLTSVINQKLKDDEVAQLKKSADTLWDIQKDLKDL
Method: as §1
MST measurements were performed on a Nanotemper Monolith NT.115 instrument (Nanotemper Technologies®, GmbH) using Red-dye-NHS fluorescent labeling. Each LDH (WT or truncated) sample, purified to homogeneity, was labeled with the Monolith RED-NHS 2nd generation labeling dye according to the supplied protocol (Nanotemper Technologies®, GmbH). Measurements were performed in 50 mM Na-Phosphate pH 7.6 and 100 mM NaCl containing 0.05% Tween-20 in premium treated capillaries (Nanotemper Technologies®, GmbH). The final concentrations of either labeled protein in the assay were 100 nM. […] Linear octapeptides were evaluated for their thermophoretic pattern.

rabbit LDHA (LDH-M) = target: T2, rabbit LDHA (LDH-M) (Oryctolagus cuniculus, UniProt P13491); assay: Intrinsic fluorescence assay: recovery of tryptophan fluorescence after acidic dissociation, Example 1; assay type: biochemical; conditions: pre-dissociation at pH 5.0, neutralization; LT018 50 μM, LB8 up to 100 μM
T2 construct: purchased Sigma-Aldrich
Method: Following described procedure; rabbit LDHA commercial solution in an ammonium sulfate suspension in (pH-7.0, 3.2 M) was first diluted to 1 mg/ml in a solution of NaCl 200 mM and then dialyzed at 4° C. 2×2 h against 200 mM NaCl. The stock solution of 1 mg/ml was then diluted to 30 μg/ml in NaCl 200 mM to give the assay solution.
Assay solution was mixed 1:1 with either an acetate-chloride buffer (20 mM Acetic acid/Acetate, 180 mM NaCl, pH 5.0) or phosphate buffer (250 mM phosphate pH 7.6). After storage at 4° C. for 30′, samples were removed and diluted 1:1,250 mM phosphate buffer (pH 7.6) to yield a 7.5 μg/ml final concentration of re-associating LDH-M.
Samples of the resulting solutions were then subjected to kinetic experiments of the recovery of intrinsic fluorescence (Exc=286 nm, Em=350 nm, 10′, rt). Full tryptophan fluorescence spectra were afterward recorded (Exc=286 nm, Em=320-400 nm, rt).
To confirm this hypothesis, experiments were therefore designed to follow the recovery of the LDH tetrameric form after a pre-dissociation initiated in slightly acidic conditions. Briefly, six tryptophan residues are found in the LDH structure, three of them being located at the dimer-dimer interface. As the tryptophan quantum yield decreases in polar environment, dimeric LDHs show very weak tryptophan fluorescence compared to tetrameric one. […] The recovery of fluorescence upon pH neutralization is therefore a direct measure of the tetramer re-association.

rabbit LDH5 (rLDH5) = target: T3, rabbit LDH5 (rLDH5) (Oryctolagus cuniculus, UniProt P13491); assay: Denaturation assay: rLDH5 fluorescence recovery after acidic exposure; assay type: biochemical; conditions: 200 nM rLDH5, 50 μM peptide, pH 5 then neutral pH
T3 construct: purchased Sigma-Aldrich
Method: Rabbit LDHA commercial solution (Sigma-Aldrich®) in an ammonium sulfate suspension (pH-7, 3.2 M) was first diluted to 1 mg/ml in a solution of NaCl 200 mM and then dialyzed at 4° C. 2×2 h against 200 mM NaCl. The stock solution of 1 mg/ml was then diluted to 30 μg/ml (800 nM) in NaCl 20 0 mM to give the assay solution. Assay solution was mixed 1:1 with acetate-chloride buffer (20 mM Acetic acid/Acetate, 180 mM NaCl, 1 mM DTT pH 5) and stored on ice for 30 minutes. Samples were then removed from ice and let warm up for 2 minutes. The acidic solution was then diluted 1:1 with a 250 mM phosphate buffer (pH 7.6) containing or not the inhibitory peptide to yield a 7.5 μg/ml (200 nM) final concentration of re-associating LDHA. Samples of the resulting solutions were then subjected to kinetic experiments of the recovery of intrinsic fluorescence (Exc=286 nm, Em=350 nm, 10′, rt).
An experiment was thus designed to follow the recovery of LDH tetramers after a dissociation step initiated by acidic conditions. […] Monitoring of the rLDH5 tetrameric state was performed by following its intrinsic tryptophan fluorescence: 6 tryptophan residues can be found in each rLDHA monomer, three of them being located at the dimer-dimer interface. As the tryptophan quantum yield decreases in a polar environment, dimeric LDHs show very weak tryptophan fluorescence compared to the tetrameric form. […] Such decay can be compared to the difference in tryptophan fluorescence between tetrameric LDH1 and dimeric LDHBtr.

LDHBtr [2] = target: T1, LDHBtr; assay: Microscale thermophoresis (MST), Example 1; assay type: binding
Method: MST measurements were performed on a Nanotemper Monolith NT.115 instrument (Nanotemper Technologies®, GmbH) using Red-dye-NHS fluorescent labeling. Each LDH (WT or truncated) sample, purified to homogeneity, was labeled with the Monolith RED-NHS 2nd generation labeling dye according to the supplied protocol (Nanotemper Technologies®, GmbH). Measurements were performed in 50 mM Na-Phosphate pH 7.6 and 100 mM NaCl containing 0.05% Tween-20 in premium treated capillaries (Nanotemper Technologies®, GmbH). The final concentrations of either labeled protein in the assay were 100 nM. The ligands (NADH and peptides) were titrated in 1:1 dilutions following manufacturer's recommendations. All binding reactions were incubated 5′ at room temperature after loading into capillaries. Experiments were performed in triplicates using 40% LED power and medium MST power, LaserOn time was 20 sec, Laser Off time 3 sec. Linear octapeptides were evaluated for their thermophoretic pattern.

[3] = linear peptides at 800 μM, LDHBtr 15 μM

T1 sequence (P07195 21-334): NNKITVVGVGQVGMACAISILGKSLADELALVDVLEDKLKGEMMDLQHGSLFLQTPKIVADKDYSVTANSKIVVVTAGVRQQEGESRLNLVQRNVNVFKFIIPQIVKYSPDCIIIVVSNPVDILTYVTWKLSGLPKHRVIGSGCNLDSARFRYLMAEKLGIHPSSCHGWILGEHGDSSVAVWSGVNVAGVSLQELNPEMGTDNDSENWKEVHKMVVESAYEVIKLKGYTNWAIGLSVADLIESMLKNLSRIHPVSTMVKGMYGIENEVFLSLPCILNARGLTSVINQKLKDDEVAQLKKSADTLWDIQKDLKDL

| Compound | NMR WaterLOGSY signal / saturation transfer (LDHBtr [1]) | Binding using WaterLOGSY (800 μM) (LDHBtr [1]; [3]) | Interaction with full length LDH1 / competition with LDHB native arm (full length LDH1 enzyme) | recovery of fluorescence intensity after denaturation (LDH re-association) (rabbit LDHA (LDH-M)) | LDH5 fluorescence recovery after acidification (rabbit LDH5 (rLDH5)) | pKd (LDHBtr [2]; linear peptides, read-out: Kd using MST experiment) | Binding using WaterLOGSY (800 μM) (LDHBtr [1]; cyclic peptides at 800 μM) | increase in potency compared to LB8 (LDHBtr [2]; Kd by MST) |
| --- | --- | --- | --- | --- | --- | --- | --- | --- |
| CC[C@H](C)[C@H](NC(=O)[C@H](CC(C)C)NC(=O)[C@H](CCCCN)NC(=O)[C@H](CCC(=O)O)NC(=O)[C@H](CCCCN)NC(=O)[C@H](CC(C)C)NC(=O)[C@@H](NC(=O)[C@H](C)N)[C@@H](C)O)C(=O)N[C@@H](C)C(=O)N1CCC[C@H]1C(=O)N[C@H](C(=O)N[C@@H](C)C(=O)N[C@@H](CCC(=O)O)C(=O)N[C@@H](CCC(=O)O)C(=O)N[C@@H](CCC(=O)O)C(=O)N[C@@H](C)C(=O)N[C@H](C(=O)N[C@H](C(=O)N1CCC[C@H]1C(N)=O)C(C)C)[C@@H](C)O)C(C)C [LB19, ATLKEKLIAPVAEEEATVP] (H-ATLKEKLIAPVAEEEATVP-NH2; N-terminus assumed) | positive signal | + (binders) | no interaction | – | – | – | – | – |
| Ac-LIAPVAE-NH2 [LBc, LB19 central fragment evaluated as a negative control, reference compound] | not to demonstrate any appreciable saturation transfer | − (non-binders) | – | no effect | no effect | – | – | – |
| CC[C@H](C)[C@H](NC(=O)[C@H](CC(C)C)NC(=O)[C@H](CCCCN)NC(=O)[C@H](CCC(=O)O)NC(=O)[C@H](CCCCN)NC(=O)[C@H](CC(C)C)NC(=O)[C@@H](NC(=O)[C@H](C)N)[C@@H](C)O)C(N)=O [LB8, ATLKEKLI] (H-ATLKEKLI-NH2; N-terminus assumed) | – | + (binders) | – | no effects up to 100 μM | no effect | 2.85 | – | – |
| CC[C@H](C)[C@H](NC(=O)[C@H](CC(C)C)NC(=O)[C@H](CCCCN)NC(=O)[C@@H]1CSCc2cccc(c2)CSC[C@H](N)C(=O)N[C@@H]([C@@H](C)O)C(=O)N[C@@H](CC(C)C)C(=O)N[C@@H](CCCCN)C(=O)N1)C(N)=O [LT018, CTLKCKLI] (H-CTLKCKLI-NH2; linker 1-5 via mXylylene; N-terminus assumed) | intense saturation transfer | – | not able to compete with LDHB native arm | nicely interfered with the fluorescence recovery at 50 μM | – | – | + (binders) | 30 fold |

From patent US20220289791A1, “LACTATE DEHYDROGENASE INHIBITOR POLYPEPTIDES FOR USE IN THE TREATMENT OF CANCER” (UNIVERSITÉ CATHOLIQUE DE LOUVAIN, priority 2019, published 2022)
